Experimental data published in patent US20240336559A1, “ANTI-FUNGALS COMPOUNDS TARGETING THE SYNTHESIS OF FUNGAL SPHINGOLIPIDS” (The Research Foundation for the State University of New York, priority 2021, published 2024).
Converted amounts (≈) assume the structure as drawn. Read-outs that look alike come from different tables or passages of the source.

Assays:
[1] = system: C. neoformans; experiment: Antifungal activity assay (MIC80), C. neoformans; assay type: cell-based; conditions: Cryptococcus neoformans
Procedure: (§1) MICs were determined following the methods of the Clinical and Laboratory Standards Institutes (CLSI) with modifications. Yeast nitrogen base (YNB) medium without amino acid (pH 7.0, 2% glucose) buffered with (4-(2-hydroxyethyl)-1-piperazineethanesulfonic acid) (HEPES) was used for MIC studies in C. neoformans. YNB medium without ammonium sulfate, without amino acid and 1% asparagine (pH 7.0, 2% glucose) was used for MIC studies in Candida strains. RPMI medium (pH 7.0, 2% glucose) was used for MIC studies in A. fumigatus. […] The compounds were serially diluted from 32 to 0.03 μg/mL, in a 96-well plate. The inoculum was prepared as described in the CLSI protocol M27A3 guidelines. The plates were incubated at 37° C. with 5% CO2 for 24 to 72 h and the optical density was measure at 450 nm. The MICs were determined as the lowest concentration of the compound that inhibited 80% of growth compared to the control.
MICs was determined following the methods of the Clinical and Laboratory Standards Institutes (CLSI) with modifications. Yeast Nitrogen Base (YNB) medium (pH 7.0, 0.2% glucose) buffered with HEPES was used for MIC studies. […] The compound was serially diluted from 16 to 0.03 μg/ml, in a 96-well plate. The inoculum was prepared as described in the CLSI protocol M27A3 guidelines. The plates were incubated at 37° C. with 5% CO2 for 24 to 72 h and the optical density was measure at 450 nm. The MICs was determined as the lowest concentration of the compound that inhibited 80% of growth compared to the control.

[2] = system: A. fumigatus; experiment: Antifungal activity assay (MIC80), A. fumigatus; assay type: cell-based; conditions: Aspergillus fumigatus; lowest concentration inhibiting 80% of growth; RPMI pH 7.0, 37° C., 5% CO2, 24 to 72 h
Procedure: as §1

[3] = system: C. albicans; experiment: Antifungal activity assay (MIC80), C. albicans; assay type: cell-based; conditions: Candida albicans; lowest concentration inhibiting 80% of growth; YNB pH 7.0, 37° C., 5% CO2, 24 to 72 h
Procedure: as §1

[4] = system: synthesis of sphingolipid GlcCer in C. neoformans; conditions: in words, 'It was known'; cited from earlier work
[5] = system: C. neoformans, C. albicans, A. fumigatus; experiment: Broad spectrum in vitro antifungal activity; assay type: cell-based; conditions: in words
Procedure: as §1

[6] = lowest concentration inhibiting 80% of growth, YNB pH 7.0 HEPES, 37° C., 5% CO2, 24 to 72 h, read-out: MIC80 C. neoformans

MIC80 [1, 6] | MIC80 [2] | MIC80 [3] | melting point | SMILES | other results
0.031 µg/mL (≈ 0.0734 µM) | > 32 µg/mL | 0.5 µg/mL (≈ 1.18 µM) | – | C#Cc1cccc(O)c1/C=N/NC(=O)c1ccc(Br)cc1Br [SB-AF-08-29, 2,4-Dibromo-N′-(2-ethynyl-6-hydroxybenzylidene)benzohydrazide] | –
– | – | – | 193 to 195 °C | CC(C)OCc1ccc(C(=O)N/N=C/c2ccc(Br)cc2O)cc1 [SB-AF-41-13, 4-Isopropoxymethyl-N′-(4-bromo-2-hydroxybenzylidene)benzohydrazide] | –
– | – | – | 186 to 187 °C | CC(C)OCc1ccc(C(=O)N/N=C/c2cc(Br)cc(Br)c2O)cc1 [SB-AF-41-17, 4-Isopropoxymethyl-N′-(3,5-dibromo-2-hydroxybenzylidene)benzohydrazide] | –
– | – | – | 175 to 176 °C | CCCOCc1ccc(C(=O)N/N=C/c2cc(Br)ccc2O)cc1 [SB-AF-44-15, 4-Propoxymethyl-N′-(5-bromo-2-hydroxybenzylidene)benzohydrazide] | –
0.015 µg/mL (≈ 0.0355 µM) | 1 µg/mL (≈ 2.37 µM) | 4 µg/mL (≈ 9.48 µM) | – | C#Cc1cccc(/C=N/NC(=O)c2ccc(Br)c(Br)c2)c1O [SB-AF-13-28, 3,4-Dibromo-N′-(3-ethynyl-2-hydroxybenzylidene)benzohydrazide] | –
1 µg/mL (≈ 2.78 µM) | > 32 µg/mL | > 16 µg/mL | – | C#Cc1ccc(/C=N/NC(=O)c2ccc(Br)c(O)c2)c(O)c1 [SB-AF-46-27, 4-Bromo-N′-(4-ethynyl-2-hydroxybenzylidene)-3-hydroxybenzohydrazide] | –
0.007 µg/mL (≈ 0.0204 µM) | 2 µg/mL (≈ 5.83 µM) | 0.06 µg/mL (≈ 0.175 µM) | – | C#Cc1ccc(O)c(/C=N/NC(=O)c2ccc(Br)cc2)c1 [SB-AF-10-23, 4-Bromo-N′-(5-ethynyl-2-hydroxybenzylidene) benzohydrazide] | –
0.03 µg/mL (≈ 0.0685 µM) | > 16 µg/mL | 2 µg/mL (≈ 4.57 µM) | – | C#Cc1ccc(/C=N/NC(=O)c2cc(Br)cc(Br)c2O)c(O)c1 [SB-AF-12-27, 3,5-Dibromo-N′-(4-ethynyl-2-hydroxybenzylidene)-2-hydroxybenzohydrazide] | –
0.007 µg/mL (≈ 0.0188 µM) | 1 µg/mL (≈ 2.69 µM) | 1 µg/mL (≈ 2.69 µM) | – | C#Cc1ccc(O)c(/C=N/NC(=O)c2ccc(C3(C(F)(F)F)N=N3)cc2)c1 [SB-AF-43-23, 4-(3-(Trifluoromethyl)-3H-diazirin-3-yl)-N′-(5-ethynyl-2-hydroxybenzylidene) benzohydrazide] | –
– | – | – | 205 to 207 °C | CCOCc1ccc(C(=O)N/N=C/c2cc(Br)cc(Br)c2O)cc1 [SB-AF-40-17, 4-Ethoxymethyl-N′-(3,5-dibromo-2-hydroxybenzylidene)benzohydrazide] | –
≤ 0.015 µg/mL | – | > 16 µg/mL | – | C#Cc1ccc(/C=N/NC(=O)c2ccc(COC(C)C)cc2)c(O)c1 [SB-AF-41-27, N′-(4-Ethynyl-2-hydroxybenzylidene)-4-(isopropoxymethyl)benzohydrazide] | –
– | – | – | 187 to 188 °C | COCc1ccc(C(=O)N/N=C/c2cccc(Br)c2O)cc1 [SB-AF-39-22, 4-Methoxymethyl-N′-(3-bromo-2-hydroxybenzylidene)benzohydrazide] | –
0.25 µg/mL (≈ 0.811 µM) | – | – | – | C#Cc1ccc(O)c(/C=N/NC(=O)c2ccc(COC)cc2)c1 [SB-AF-39-23, 4-Methoxymethyl-N′-(5-ethynyl-2-hydroxybenzylidene)benzohydrazide] | –
– | – | – | 176 to 177 °C | CCOCc1ccc(C(=O)N/N=C/c2cccc(Br)c2O)cc1 [SB-AF-40-22, 4-Ethoxymethyl-N′-(3-bromo-2-hydroxybenzylidene)benzohydrazide] | –
0.25 µg/mL (≈ 0.743 µM) | – | > 16 µg/mL | – | C#Cc1ccc(/C=N/NC(=O)c2ccc(COCCC)cc2)c(O)c1 [SB-AF-44-27, N′-(4-Ethynyl-2-hydroxybenzylidene)-4-(propoxymethyl)benzohydrazide] | –
– | – | – | – | Cc1ccccc1C(=O)N/N=C/c1ccc(O)c(Br)c1 [BHBM] | antifungal activities by inhibiting the synthesis of sphingolipid GlcCer [4]: potent antifungal activities

MIC80 [1, 6] | MIC80 [2] | MIC80 [3] | melting point | SMILES | other results
0.06 µg/mL (≈ 0.142 µM) | 2 µg/mL (≈ 4.74 µM) | 0.5 µg/mL (≈ 1.18 µM) | – | C#Cc1ccc(O)c(/C=N/NC(=O)c2ccc(Br)c(Br)c2)c1 [SB-AF-13-23, 3,4-Dibromo-N′-(5-ethynyl-2-hydroxybenzylidene)benzohydrazide] | –
– | – | – | 190 to 192 °C | CCCOCc1ccc(C(=O)N/N=C/c2cc(Br)cc(Br)c2O)cc1 [SB-AF-44-17, 4-Propoxymethyl-N′-(3,5-dibromo-2-hydroxybenzylidene)benzohydrazide] | –
0.03 µg/mL (≈ 0.0711 µM) | 0.5 µg/mL (≈ 1.18 µM) | 0.12 µg/mL (≈ 0.284 µM) | – | C#Cc1ccc(/C=N/NC(=O)c2ccc(Br)cc2Br)c(O)c1 [SB-AF-08-27, 2,4-Dibromo-N′-(4-ethynyl-2-hydroxybenzylidene)benzohydrazide] | in vitro broad-spectrum antifungal activity [5]: excellent in vitro broad-spectrum activity
0.007 µg/mL (≈ 0.0166 µM) | > 16 µg/mL | 8 µg/mL (≈ 19 µM) | – | C#Cc1ccc(/C=N/NC(=O)c2ccc(Br)c(Br)c2)c(O)c1 [SB-AF-13-27, 3,4-Dibromo-N′-(4-ethynyl-2-hydroxybenzylidene)benzohydrazide] | –
0.007 µg/mL (≈ 0.0243 µM) | > 16 µg/mL | 16 µg/mL (≈ 55.5 µM) | – | C#Cc1ccc(C(=O)N/N=C/c2ccc(C#C)cc2O)cc1 [SB-AF-36-27, 4-Ethynyl-N′-(4-ethynyl-2-hydroxybenzylidene)benzohydrazide] | –
0.03 µg/mL (≈ 0.0711 µM) | 2 µg/mL (≈ 4.74 µM) | ≤ 0.01 µg/mL | – | C#Cc1ccc(O)c(/C=N/NC(=O)c2ccc(Br)cc2Br)c1 [SB-AF-08-23, 2,4-Dibromo-N′-(5-ethynyl-2-hydroxybenzylidene)benzohydrazide] | –
0.007 µg/mL (≈ 0.0204 µM) | 4 µg/mL (≈ 11.7 µM) | 2 µg/mL (≈ 5.83 µM) | – | C#Cc1cccc(/C=N/NC(=O)c2ccc(Br)cc2)c1O [SB-AF-10-28, 4-Bromo-N′-(3-ethynyl-2-hydroxybenzylidene)benzohydrazide] | –
0.03 µg/mL (≈ 0.0874 µM) | > 16 µg/mL | 4 µg/mL (≈ 11.7 µM) | – | C#Cc1ccc(/C=N/NC(=O)c2ccc(Br)cc2)c(O)c1 [SB-AF-10-27, 4-Bromo-N′-(4-ethynyl-2-hydroxybenzylidene)benzohydrazide] | –
4 µg/mL (≈ 10.9 µM) | – | – | – | C#Cc1ccc(O)c(/C=N/NC(=O)c2ccc(OC(F)(F)F)cc2F)c1 [SB-AF-25-23, 2-Fluoro-4-(trifluoromethoxy)-N-(5-ethynyl-2-hydroxybenzylidene)benzohydrazide] | –
– | – | – | 179 to 181 °C | CC(C)OCc1ccc(C(=O)N/N=C/c2cc(Br)ccc2O)cc1 [SB-AF-41-15, 4-Isopropoxymethyl-N′-(5-bromo-2-hydroxybenzylidene)benzohydrazide] | –
0.03 µg/mL (≈ 0.0685 µM) | 4 µg/mL (≈ 9.13 µM) | 0.12 µg/mL (≈ 0.274 µM) | – | C#Cc1ccc(O)c(/C=N/NC(=O)c2cc(Br)cc(Br)c2O)c1 [SB-AF-12-23, 2-Hydroxy-3,5-dibromo-N-(5-ethynyl-2-hydroxybenzylidene)benzohydrazide] | –
0.06 µg/mL (≈ 0.142 µM) | 8 µg/mL (≈ 19 µM) | 16 µg/mL (≈ 37.9 µM) | – | C#Cc1cccc(O)c1/C=N/NC(=O)c1ccc(Br)c(Br)c1 [SB-AF-13-29, 3,4-Dibromo-N′-(2-ethynyl-6-hydroxybenzylidene)benzohydrazide] | –
– | – | – | 188 to 189 °C | COCc1ccc(C(=O)N/N=C/c2cc(Br)ccc2O)cc1 [SB-AF-39-15, 4-Methoxymethyl-N′-(5-bromo-2-hydroxybenzylidene)benzohydrazide] | –
0.031 µg/mL (≈ 0.0962 µM) | – | 8 µg/mL (≈ 24.8 µM) | – | C#Cc1ccc(/C=N/NC(=O)c2ccc(COCC)cc2)c(O)c1 [SB-AF-40-27, 4-(Ethoxymethyl)-N′-(4-ethynyl-2-hydroxybenzylidene)benzohydrazide] | –
– | – | – | 198 to 199 °C | COCc1ccc(C(=O)N/N=C/c2ccc(Br)cc2O)cc1 [SB-AF-39-13, 4-Methoxymethyl-N′-(4-bromo-2-hydroxybenzylidene)benzohydrazide] | –

SMILES | MIC80 [1, 6] | MIC80 [2] | MIC80 [3] | melting point | other results
C#Cc1cccc(O)c1/C=N/NC(=O)c1ccc(Br)cc1 [SB-AF-10-29, 4-Bromo-N-(2-ethynyl-6-hydroxybenzylidene)benzohydrazide] | – | > 32 µg/mL | 8 µg/mL (≈ 23.3 µM) | – | MIC80 ([1]; pH 7, read-out: MIC80 C. neoformans): 0.125 µg/mL (≈ 0.364 µM)
